# Results as given in US7125662B2, “Method of identifying putative antibiotic resistance genes” (priority 2000, dated 2006).
# Columns and labels:
# [1] = system: Salmonella enteritidis serovar typhimurium strain LT2; experiment: MIC, native Salmonella strain LT2; type: cell-based; conditions: for MIC: Salmonella enterica, read-out: Minimum Inhibitory Concentration; for sensitivity of the strain to the drug: native strain LT2
# DH5α-E/pACSE2 = experiment: MIC, host with empty expression vector; type: cell-based, E. coli; conditions: for MIC: Escherichia coli, read-out: Minimum Inhibitory Concentration
# Procedure: (§1) The putative AAC(6′) aminogylcoside N6′-acetyltransferase gene from Salmonella enteritidis serovar typhimurium strain LT2, designated AAC(6′)-Iaa, was amplified by PCR and cloned into the expression vector pACSE2 (U.S. patent application Ser. No. 09/640,882 to Hall, filed Aug. 18, 2000, which is hereby incorporated by reference in its entirety). The resulting plasmid was designated pAAC(6′)-Iaa (FIG. 2A). The sequence of the AAC(6′)-Iaa coding region was determined by automated DNA sequencing and was confirmed to be identical to the sequence obtained from the incomplete genome sequence database (FIG. 2B).
# DH5α-E/pAAC(6′)-Iaa = experiment: MIC, transgenic host expressing AAC(6′)-Iaa; type: cell-based, E. coli; conditions: for MIC: Escherichia coli, read-out: Minimum Inhibitory Concentration; for resistance conferred by plasmid pAAC(6′)-Iaa: transformed into E. coli strain DH5α-E
# Procedure: as §1
# [2] = system: host expressing Citrobacter freundii ampC gene Cfre8454; experiment: MIC conferred by ampC gene Cfre8454 cloned into common vector; type: cell-based; conditions: for Minimum Inhibitory Concentration (MIC): Cfre 8454, gene from organism isolated in the 1920's
# Excerpt: (§2) The plasmid-borne ampC genes shown in Table 1 (below) have been cloned into a common vector to ensure that all genes are expressed at the same level. […] That is completely expected because those genes were isolated from clinical samples and identified on the basis of conferring resistance to clinical drugs. ampC genes from two strains of Citrobacter freundii that were isolated in the 1920's, in the pre-antibiotic era, were also cloned into the same vector.
# [3] = system: host expressing Citrobacter freundii ampC gene LAT2; experiment: MIC conferred by ampC gene LAT2 cloned into common vector; type: cell-based
# Excerpt: as §2
# [4] = system: plasmid-borne ampC genes CMY-2, CMY-3b, LAT-1, LAT-2, LAT-3, and LAT-4; experiment: Clinical resistance conferred by plasmid-borne ampC genes as a group; type: cell-based, Citrobacter freundii; conditions: all of CMY-2, CMY-3b, LAT-1, LAT-2, LAT-3, LAT-4
# Excerpt: (§3) The plasmid-borne ampC genes shown in Table 1 (below) have been cloned into a common vector to ensure that all genes are expressed at the same level.
# [5] = system: host expressing Citrobacter freundii ampC gene LAT3; experiment: MIC conferred by ampC gene LAT3 cloned into common vector; type: cell-based
# Excerpt: as §2
# [6] = system: evolved E. coli ampC gene; conditions: two or three laboratory-induced mutations; cited from earlier work
# [7] = system: host expressing Citrobacter freundii ampC gene LAT1; experiment: MIC conferred by ampC gene LAT1 cloned into common vector; type: cell-based
# Excerpt: as §2
# [8] = cited from earlier work; for Clin. = the MIC for clinical resistance: Table 1, β-lactams, unit assumed; for Minimum Inhibitory Concentration, Clinical Resistance: Table 2, aminoglycosides
# [9] = system: host expressing Citrobacter freundii ampC gene CMY2; experiment: MIC conferred by ampC gene CMY2 cloned into common vector; type: cell-based
# Excerpt: as §2
# [10] = system: host expressing Citrobacter freundii ampC gene LAT4; experiment: MIC conferred by ampC gene LAT4 cloned into common vector; type: cell-based
# Excerpt: as §2
# [11] = system: host expressing Citrobacter freundii ampC gene Cfre6879; experiment: MIC conferred by ampC gene Cfre6879 cloned into common vector; type: cell-based; conditions: Cfre 6879, gene from organism isolated in the 1920's
# Excerpt: as §2
# [12] = system: host expressing Citrobacter freundii ampC gene CMY3b; experiment: MIC conferred by ampC gene CMY3b cloned into common vector; type: cell-based
# Excerpt: as §2
# No Plasmid host = experiment: MIC, host with no plasmid (Table 1); type: cell-based
# Excerpt: as §3
# E. coli K12 ampC = conditions: gene cloned into a plasmid, effective promoter; cited from earlier work
# [13] = S. enteritidis serovar typhimurium LT2
Compound,Minimum Inhibitory Concentration (MIC) [2],Minimum Inhibitory Concentration (MIC) [3],clinical resistance conferred [4],Minimum Inhibitory Concentration (MIC) [5],resistance conferred after further evolution [6],Minimum Inhibitory Concentration (MIC) [7],Clin. = the MIC for clinical resistance [8] [µg/mL],Minimum Inhibitory Concentration (MIC) [9],Minimum Inhibitory Concentration (MIC) [10],Minimum Inhibitory Concentration (MIC) [11],Minimum Inhibitory Concentration (MIC) [12],Minimum Inhibitory Concentration (MIC) (No Plasmid host),also measured
NC[C@H]1O[C@H](O[C@H]2[C@H](O)[C@@H](O[C@H]3O[C@H](CO)[C@@H](O)[C@H](N)[C@H]3O)[C@H](N)C[C@@H]2N)[C@H](O)[C@@H](O)[C@@H]1O [Kanamycin],–,–,–,–,–,–,–,–,–,–,–,–,"MIC [1, 13]: 4 µg/mL; MIC (DH5α-E/pACSE2): 0.125 µg/mL; MIC (DH5α-E/pAAC(6′)-Iaa; DH5α-E/pAAC(6′)-Iaa): 32 µg/mL"
CO[C@@]1(NC(=O)C(C(=O)O)c2ccsc2)C(=O)N2[C@@H](C(=O)O)C(C)(C)S[C@@H]21 (some centres unmarked) [Temocillin],32,32,confer clinical resistance,64,confer resistance,64,32,32,64,32,32,4,–
CO/N=C(\C(=O)N[C@@H]1C(=O)N2C(C(=O)O)=C(COC(N)=O)CS[C@H]12)c1ccco1 [Cefuroxime],512,256,confer clinical resistance,1024,–,2048,32,256,2048,512,1024,8,clinical resistance conferred (E. coli K12 ampC): confers clinical resistance
Gentamycin,–,–,–,–,–,–,–,–,–,–,–,–,"Minimum Inhibitory Concentration [1, 13]: 2 µg/mL; sensitivity of the strain to the drug [1]: sensitive; Minimum Inhibitory Concentration (DH5α-E/pACSE2): 0.25 µg/mL; Minimum Inhibitory Concentration (DH5α-E/pAAC(6′)-Iaa; DH5α-E/pAAC(6′)-Iaa): 0.5 µg/mL; resistance conferred by plasmid pAAC(6′)-Iaa (DH5α-E/pAAC(6′)-Iaa): not; Minimum Inhibitory Concentration, Clinical Resistance [8]: 8 µg/mL"
CCN1CCN(C(=O)N[C@@H](C(=O)N[C@@H]2C(=O)N3[C@@H]2SC(C)(C)[C@@H]3C(=O)O)c2ccccc2)C(=O)C1=O [Pipericillin],512,256,confer clinical resistance,512,confer resistance,128,128,256,512,512,128,2,–
C[C@H]1[C@H](NC(=O)/C(=N\OC(C)(C)C(=O)O)c2csc(N)n2)C(=O)N1S(=O)(=O)O [Aztreonam],128,64,–,64,confer resistance,256,–,16,128,256,128,–,–
CC1(C)S[C@@H]2[C@H](NC(=O)[C@H](N)c3ccccc3)C(=O)N2[C@H]1C(=O)O [Ampicillin],2048,2048,confer clinical resistance,1024,–,1024,32,1024,1024,1024,1024,2,clinical resistance conferred (E. coli K12 ampC): confers clinical resistance
NCC[C@H](O)C(=O)N[C@@H]1C[C@H](N)[C@@H](O[C@H]2O[C@H](CN)[C@@H](O)[C@H](O)[C@H]2O)[C@H](O)[C@H]1O[C@H]1O[C@H](CO)[C@@H](O)[C@H](N)[C@H]1O [Amikacin],–,–,–,–,–,–,–,–,–,–,–,–,"MIC [1, 13]: 4 µg/mL; sensitivity of the strain to the drug [1]: sensitive; MIC (DH5α-E/pACSE2): 0.25 µg/mL; MIC (DH5α-E/pAAC(6′)-Iaa; DH5α-E/pAAC(6′)-Iaa): 8 µg/mL; resistance conferred by plasmid pAAC(6′)-Iaa (DH5α-E/pAAC(6′)-Iaa): not; Minimum Inhibitory Concentration, Clinical Resistance [8]: 32 µg/mL"
CC(=O)OCC1=C(C(=O)O)N2C(=O)[C@@H](NC(=O)Cc3cccs3)[C@H]2SC1 [Cephalothin],2048,4096,confer clinical resistance,2048,–,4096,32,1024,4096,1024,2048,4,clinical resistance conferred (E. coli K12 ampC): confers clinical resistance
CO/N=C(\C(=O)N[C@@H]1C(=O)N2C(C(=O)O)=C(COC(C)=O)CS[C@H]12)c1csc(N)n1 [Cefotaxime],128,64,confer clinical resistance,128,–,64,64,64,256,128,64,–,–
NC[C@H]1O[C@H](O[C@H]2[C@H](O)[C@@H](O[C@H]3O[C@H](CO)[C@@H](O)[C@H](N)[C@H]3O)[C@H](N)C[C@@H]2N)[C@H](N)C[C@@H]1O [Tobramycin],–,–,–,–,–,–,–,–,–,–,–,–,"MIC [1, 13]: 4 µg/mL; sensitivity of the strain to the drug [1]: sensitive; MIC (DH5α-E/pACSE2): 0.25 µg/mL; MIC (DH5α-E/pAAC(6′)-Iaa; DH5α-E/pAAC(6′)-Iaa): 16 µg/mL; resistance conferred by plasmid pAAC(6′)-Iaa (DH5α-E/pAAC(6′)-Iaa): conferred resistance; Minimum Inhibitory Concentration, Clinical Resistance [8]: 8 µg/mL"
CC(C)(O/N=C(\C(=O)N[C@@H]1C(=O)N2C(C(=O)[O-])=C(C[n+]3ccccc3)CS[C@H]12)c1csc(N)n1)C(=O)O [Ceftazidime],8,256,confer clinical resistance,256,confer resistance,256,32,128,256,512,256,0.25,"resistance conferred ([2]; Cfre8454, without any additional mutations): does not confer clinical resistance"
